From PMC3914206

Key:
Type in all cases: binding
Parameters in all cases: KINOMEscan: ABL1(F317L)-phosphorylated / KINOMEscan: ABL1(H396P)-nonphosphorylated / KINOMEscan: ABL1(H396P)-phosphorylated / KINOMEscan: ABL1(M351T)-phosphorylated / KINOMEscan: ABL1(T315I)-phosphorylated / KINOMEscan: ABL1-nonphosphorylated / KINOMEscan: ABL1-phosphorylated / KINOMEscan: ACVR2A / KINOMEscan: ACVR2B / KINOMEscan: ADCK3 / KINOMEscan: ADCK4 / KINOMEscan: AKT1 / KINOMEscan: AKT3 / KINOMEscan: ALK / KINOMEscan: ARK5 / KINOMEscan: AURKA / KINOMEscan: AURKC / KINOMEscan: BIKE / KINOMEscan: BMPR1A / KINOMEscan: BMPR1B / KINOMEscan: BMX / KINOMEscan: BRK / KINOMEscan: BRSK1 / KINOMEscan: BRSK2 / KINOMEscan: CAMK1 / KINOMEscan: CAMK1D / KINOMEscan: CAMK1G / KINOMEscan: CAMK2A / KINOMEscan: CAMK2B / KINOMEscan: AAK1 / KINOMEscan: CAMK2D / KINOMEscan: CAMK2G / KINOMEscan: ABL1(F317I)-nonphosphorylated / KINOMEscan: ABL1(F317I)-phosphorylated / KINOMEscan: ABL1(F317L)-nonphosphorylated: unit: % Ctrl
Settings in all cases: Compound Concentration 10 µM
panel of 442 kinases [1] = target: T1, panel of 442 kinases (Homo sapiens, UniProt P00519)
T1 construct: purchased KINOMEscan
T1 sequence (P00519 whole entry): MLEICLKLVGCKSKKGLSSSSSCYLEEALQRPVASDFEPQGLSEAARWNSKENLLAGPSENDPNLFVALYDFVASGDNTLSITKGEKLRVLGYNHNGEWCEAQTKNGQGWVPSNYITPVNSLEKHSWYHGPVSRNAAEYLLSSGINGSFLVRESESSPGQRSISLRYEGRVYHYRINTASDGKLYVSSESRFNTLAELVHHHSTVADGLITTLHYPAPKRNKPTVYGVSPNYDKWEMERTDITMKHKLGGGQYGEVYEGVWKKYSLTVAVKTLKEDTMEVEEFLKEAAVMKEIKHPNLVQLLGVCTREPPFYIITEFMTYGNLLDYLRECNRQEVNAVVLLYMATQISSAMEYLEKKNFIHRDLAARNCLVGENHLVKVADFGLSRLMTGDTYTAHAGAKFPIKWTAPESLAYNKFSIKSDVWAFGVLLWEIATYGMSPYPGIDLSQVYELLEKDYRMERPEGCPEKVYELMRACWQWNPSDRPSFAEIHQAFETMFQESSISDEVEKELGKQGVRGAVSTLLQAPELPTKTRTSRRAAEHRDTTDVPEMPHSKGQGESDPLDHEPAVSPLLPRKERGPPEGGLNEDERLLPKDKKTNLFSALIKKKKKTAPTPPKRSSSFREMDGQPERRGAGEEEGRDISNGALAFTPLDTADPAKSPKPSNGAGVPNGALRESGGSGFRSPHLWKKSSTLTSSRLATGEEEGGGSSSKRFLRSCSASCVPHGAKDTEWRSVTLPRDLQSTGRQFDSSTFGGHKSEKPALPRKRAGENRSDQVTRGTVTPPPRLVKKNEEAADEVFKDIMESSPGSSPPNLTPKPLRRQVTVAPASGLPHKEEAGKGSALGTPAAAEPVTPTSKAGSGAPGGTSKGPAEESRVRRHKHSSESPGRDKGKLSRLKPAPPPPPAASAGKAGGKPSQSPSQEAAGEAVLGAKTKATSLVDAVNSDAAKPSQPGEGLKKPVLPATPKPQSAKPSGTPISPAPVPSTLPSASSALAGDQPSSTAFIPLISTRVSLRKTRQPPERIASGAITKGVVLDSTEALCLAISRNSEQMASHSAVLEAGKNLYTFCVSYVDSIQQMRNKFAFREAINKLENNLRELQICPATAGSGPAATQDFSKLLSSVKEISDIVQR
From the text: (§1) We assessed the selectivity of members of this scaffold using the KINOMEscan methodology across a near comprehensive panel of 442 kinases [[18,27]].

panel of 442 kinases [2] = target: T2, panel of 442 kinases (Homo sapiens, UniProt Q15139)
T2 construct: purchased KINOMEscan
T2 sequence (Q15139 1-912): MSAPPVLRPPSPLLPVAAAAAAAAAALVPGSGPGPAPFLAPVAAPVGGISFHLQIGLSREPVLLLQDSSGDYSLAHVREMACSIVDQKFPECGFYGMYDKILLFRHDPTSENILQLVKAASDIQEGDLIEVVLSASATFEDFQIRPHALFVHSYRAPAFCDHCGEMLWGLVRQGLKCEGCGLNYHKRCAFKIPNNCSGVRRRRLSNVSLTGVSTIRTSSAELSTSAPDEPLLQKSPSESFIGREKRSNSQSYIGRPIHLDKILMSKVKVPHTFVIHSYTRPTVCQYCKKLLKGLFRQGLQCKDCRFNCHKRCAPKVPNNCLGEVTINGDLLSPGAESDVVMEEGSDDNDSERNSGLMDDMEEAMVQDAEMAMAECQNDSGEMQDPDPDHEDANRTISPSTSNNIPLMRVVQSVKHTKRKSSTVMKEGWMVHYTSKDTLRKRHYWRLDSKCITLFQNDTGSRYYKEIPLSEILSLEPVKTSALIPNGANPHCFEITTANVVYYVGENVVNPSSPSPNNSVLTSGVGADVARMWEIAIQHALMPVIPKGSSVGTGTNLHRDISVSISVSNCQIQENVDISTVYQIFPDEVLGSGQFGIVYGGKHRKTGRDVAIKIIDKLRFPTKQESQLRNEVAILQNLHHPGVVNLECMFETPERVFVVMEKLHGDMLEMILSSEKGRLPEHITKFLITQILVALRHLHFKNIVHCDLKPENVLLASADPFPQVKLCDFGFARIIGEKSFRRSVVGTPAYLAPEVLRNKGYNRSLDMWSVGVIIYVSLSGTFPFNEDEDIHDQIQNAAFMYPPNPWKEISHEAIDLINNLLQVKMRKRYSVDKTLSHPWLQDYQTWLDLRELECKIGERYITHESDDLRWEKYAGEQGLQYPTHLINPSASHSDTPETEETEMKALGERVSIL
From the text: as §1

panel of 442 kinases [3] = target: T3, panel of 442 kinases (Homo sapiens, UniProt Q96GD4)
T3 construct: purchased KINOMEscan
T3 sequence (Q96GD4 whole entry): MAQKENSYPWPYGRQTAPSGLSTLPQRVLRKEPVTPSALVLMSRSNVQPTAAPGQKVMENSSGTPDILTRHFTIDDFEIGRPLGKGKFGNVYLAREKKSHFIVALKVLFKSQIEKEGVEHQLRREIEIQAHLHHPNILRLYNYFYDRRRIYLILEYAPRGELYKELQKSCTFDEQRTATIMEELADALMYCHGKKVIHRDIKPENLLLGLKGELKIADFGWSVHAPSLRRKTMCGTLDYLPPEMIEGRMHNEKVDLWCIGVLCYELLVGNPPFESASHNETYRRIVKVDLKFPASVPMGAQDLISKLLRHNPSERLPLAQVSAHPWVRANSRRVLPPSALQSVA
From the text: as §1

## COc1cc(C(=O)N2CCC(N3CCN(C)CC3)CC2)ccc1Nc1ncc2c(n1)N(C)c1ccccc1C(=O)N2C [15 (LRRK2-IN-1)]
Panel of 442 kinases [1]
  KINOMEscan: ABL1-nonphosphorylated: 100
  KINOMEscan: ABL1-phosphorylated: 82
Panel of 442 kinases [2]
  KINOMEscan: PRKD1: 28
Panel of 442 kinases [3]
  KINOMEscan: AURKB: 38

## CCOc1cc(C(=O)N2CCC(N3CCN(C)CC3)CC2)ccc1Nc1ncc2c(n1)N(C1CCCC1)c1ccccc1C(=O)N2C [Compound 26]
Panel of 442 kinases [1]
  KINOMEscan: ABL1-nonphosphorylated: 96
  KINOMEscan: ABL1-phosphorylated: 100
Panel of 442 kinases [2]
  KINOMEscan: PRKD1: 100
Panel of 442 kinases [3]
  KINOMEscan: AURKB: 100

## COc1cc(C(=O)N2CCC(N3CCN(C)CC3)CC2)ccc1Nc1ncc2c(n1)N1CCc3cccc(c31)C(=O)N2C [Compound 24]
Panel of 442 kinases [1]
  KINOMEscan: ABL1-nonphosphorylated: 60
  KINOMEscan: ABL1-phosphorylated: 81
Panel of 442 kinases [2]
  KINOMEscan: PRKD1: 21

## COc1cc(C(=O)N2CCC(N3CCN(C)CC3)CC2)ccc1Nc1ncc2c(n1)N(C1CCCC1)c1ccccc1C(=O)N2C [Compound 25, 11-cyclopentyl-2-((2-methoxy-4-(4-(4-methylpiperazin-1-yl)piperidine-1-carbonyl)phenyl)amino)-5-methyl-5H-benzo[e]pyrimido[5,4-b][1,4]diazepin-6(11H)-one]
Panel of 442 kinases [1]
  KINOMEscan: ABL1-nonphosphorylated: 90
  KINOMEscan: ABL1-phosphorylated: 100
Panel of 442 kinases [2]
  KINOMEscan: PRKD1: 100
Panel of 442 kinases [3]
  KINOMEscan: AURKB: 60
